These results are taken from US12415794B2 (Edgewise Therapeutics, Inc., priority 2018, dated 2025).

The target in assay [1] is skeletal myofibrils (myosin ATPase). The experiment in a line: Skeletal Myofibril ATPase Assay. In kind it is biochemical. The procedure, abridged: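 Skeletal myofibril ATPase measured by PK-LDH coupled NADH depletion, absorbance 340 nm read every 1.5-2 min over 45 min. Max−min rate normalized to 1% DMSO vehicle as 100%; IC50 from four-parameter logistic fit with bottom ≥0. Cardiac myofibrils used as counter-screen.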

For assay [2], the target named is T1, cardiac myofibrils (myosin ATPase).
T1 construct: frozen myofibril pellets obtained from cardiac tissue; from tissue
T1 sequence (P12883 whole entry): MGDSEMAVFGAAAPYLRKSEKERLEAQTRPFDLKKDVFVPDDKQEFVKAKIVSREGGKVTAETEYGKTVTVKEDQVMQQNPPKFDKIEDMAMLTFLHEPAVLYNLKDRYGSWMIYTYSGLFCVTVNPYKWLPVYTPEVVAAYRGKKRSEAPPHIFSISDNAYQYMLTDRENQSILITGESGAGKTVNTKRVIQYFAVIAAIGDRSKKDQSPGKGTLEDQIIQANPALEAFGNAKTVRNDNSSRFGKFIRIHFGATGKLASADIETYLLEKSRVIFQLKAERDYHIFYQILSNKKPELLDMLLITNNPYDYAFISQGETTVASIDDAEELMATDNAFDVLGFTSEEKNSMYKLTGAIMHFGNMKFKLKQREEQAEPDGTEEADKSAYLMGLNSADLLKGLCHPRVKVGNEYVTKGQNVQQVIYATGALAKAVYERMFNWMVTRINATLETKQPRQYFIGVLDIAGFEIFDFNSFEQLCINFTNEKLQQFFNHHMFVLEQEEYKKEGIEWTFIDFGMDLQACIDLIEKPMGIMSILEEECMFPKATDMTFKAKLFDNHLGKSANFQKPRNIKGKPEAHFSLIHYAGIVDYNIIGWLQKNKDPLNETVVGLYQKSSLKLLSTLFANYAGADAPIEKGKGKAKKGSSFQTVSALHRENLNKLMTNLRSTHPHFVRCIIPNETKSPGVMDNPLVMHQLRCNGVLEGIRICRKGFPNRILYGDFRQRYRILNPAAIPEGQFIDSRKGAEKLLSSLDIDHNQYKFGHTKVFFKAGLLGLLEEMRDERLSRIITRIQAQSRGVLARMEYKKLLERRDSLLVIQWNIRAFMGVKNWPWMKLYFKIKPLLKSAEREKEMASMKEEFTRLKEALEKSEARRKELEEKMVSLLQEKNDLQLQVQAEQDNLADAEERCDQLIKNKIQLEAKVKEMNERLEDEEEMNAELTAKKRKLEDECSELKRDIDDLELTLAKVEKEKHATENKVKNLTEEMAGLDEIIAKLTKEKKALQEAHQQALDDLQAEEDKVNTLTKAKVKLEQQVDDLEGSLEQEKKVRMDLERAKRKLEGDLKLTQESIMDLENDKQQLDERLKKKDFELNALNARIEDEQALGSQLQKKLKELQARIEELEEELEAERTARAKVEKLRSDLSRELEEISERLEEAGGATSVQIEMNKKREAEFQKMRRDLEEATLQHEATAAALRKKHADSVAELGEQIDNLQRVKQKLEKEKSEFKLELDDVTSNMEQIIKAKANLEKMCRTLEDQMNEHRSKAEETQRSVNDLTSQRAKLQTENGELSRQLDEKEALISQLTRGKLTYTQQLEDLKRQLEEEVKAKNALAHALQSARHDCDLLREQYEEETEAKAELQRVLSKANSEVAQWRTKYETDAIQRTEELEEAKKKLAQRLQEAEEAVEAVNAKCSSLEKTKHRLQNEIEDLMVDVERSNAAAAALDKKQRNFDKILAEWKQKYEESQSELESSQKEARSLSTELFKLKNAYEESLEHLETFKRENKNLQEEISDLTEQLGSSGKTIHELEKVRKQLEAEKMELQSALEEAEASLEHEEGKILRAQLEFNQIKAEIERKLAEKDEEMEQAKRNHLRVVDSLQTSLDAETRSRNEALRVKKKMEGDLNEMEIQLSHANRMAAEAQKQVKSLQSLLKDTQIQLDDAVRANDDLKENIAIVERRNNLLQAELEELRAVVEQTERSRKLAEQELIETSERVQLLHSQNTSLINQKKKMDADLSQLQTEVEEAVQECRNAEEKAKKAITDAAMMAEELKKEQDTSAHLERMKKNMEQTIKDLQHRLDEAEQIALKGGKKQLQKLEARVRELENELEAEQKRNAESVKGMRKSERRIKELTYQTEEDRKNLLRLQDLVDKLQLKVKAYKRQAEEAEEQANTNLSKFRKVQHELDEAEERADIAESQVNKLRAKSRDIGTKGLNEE
T1 sequence (P08590 whole entry partner): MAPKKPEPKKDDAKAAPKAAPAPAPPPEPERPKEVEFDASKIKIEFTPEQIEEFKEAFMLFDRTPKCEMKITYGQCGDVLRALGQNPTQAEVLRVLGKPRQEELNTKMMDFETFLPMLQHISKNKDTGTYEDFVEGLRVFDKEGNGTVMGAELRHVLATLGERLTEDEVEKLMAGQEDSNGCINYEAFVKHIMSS
T1 sequence (P10916 whole entry partner): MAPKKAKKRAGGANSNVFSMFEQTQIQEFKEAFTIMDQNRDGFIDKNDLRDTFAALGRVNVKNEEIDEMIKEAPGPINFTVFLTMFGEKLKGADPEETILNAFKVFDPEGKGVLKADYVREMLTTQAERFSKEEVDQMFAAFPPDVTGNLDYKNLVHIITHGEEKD
The experiment in a line: Cardiac Myofibril ATPase Assay (counter screen). In kind it is biochemical. As to conditions: myofibrils 1.0 mg/mL, KCl omitted. A digest of the protocol: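 Frozen cardiac myofibrils at 1.0 mg/mL final, KCl omitted, in a PK-LDH coupled ATPase assay; ADP production tracked as NADH loss by absorbance at 340 nm. Inhibition taken as reduced rate relative to vehicle controls, with IC50 derived.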
On the technique in general: A counterscreen serves to expose hits that act by an unwanted route or on another target.

As to `CCNC(=O)Cn1nc(-c2cnc(Oc3ccc(Cl)cc3)nc2)ccc1=O` [Compound I-78, 2-(3-(2-(4-chlorophenoxy)pyrimidin-5-yl)-6-oxopyridazin-1(6H)-yl)-N-ethylacetamide], the IC50 (commonly the concentration that inhibits the measured activity by half) was 10 to 100 µM in assay [1] (Table 4A) and over 100 µM in assay [2] (Table 5A).
On the same counts, the results for `CCNC(=O)Cn1nc(-c2ccc(OC(F)(F)F)nc2)ccc1=O` [Compound I-14, N-ethyl-2-(6-oxo-3-(6-(trifluoromethoxy)pyridin-3-yl)pyridazin-1(6H)-yl)acetamide] are 10 to 100 µM and over 100 µM.
As to `O=C(Cn1nc(-c2ccc(OCC(F)(F)F)cc2)ccc1=O)N1CC(c2ccccc2)C1` [II-22, 2-(2-oxo-2-(3-phenylazetidin-1-yl)ethyl)-6-(4-(2,2,2-trifluoroethoxy)phenyl)pyridazin-3(2H)-one], the IC50 in assay [1] (Table 4B) is under 10 µM; in assay [2] (Table 5B), over 100 µM.
As for `O=C(Cn1nc(-c2ccc(OC(F)F)nc2)ccc1=O)NC1CC(F)(F)C1` [Compound I-33], the IC50 in assay [1] (Table 4A) and in assay [2] (Table 5A) was over 100 µM throughout.
`COc1ccc(-c2ccc(=O)n(CC(=O)NCc3cnccn3)n2)cc1` [IIIa-28, 2-(3-(4-methoxyphenyl)-6-oxopyridazin-1(6H)-yl)-N-(pyrazin-2-ylmethyl)acetamide]: the IC50 in assay [1] (Table 4C) and in assay [2] (Table 5C) was over 100 µM each time.
On to `COc1ccc(-c2ccc(=O)n(CC(=O)Nc3cccc(C)n3)n2)cc1` [IIIb-59, 2-(3-(4-methoxyphenyl)-6-oxopyridazin-1(6H)-yl)-N-(6-methylpyridin-2-yl)acetamide], for which the IC50 in assay [1] (Table 4C) and in assay [2] (Table 5C) was over 100 µM in each case.
As for `COc1ccc(-c2ccc(=O)n(CC(=O)NCc3ccccc3Cl)n2)cc1` [IIIb-1, N-(2-chlorobenzyl)-2-(3-(4-methoxyphenyl)-6-oxopyridazin-1(6H)-yl)acetamide], the IC50 in assay [1] (Table 4C) was under 10 µM; in assay [2] (Table 5C), over 100 µM.
For `CCNC(=O)Cn1nc(-c2ccc(NC3CC(F)(F)C3)nc2)ccc1=O` [Compound I-74, 2-(3-(6-((3,3-difluorocyclobutyl)amino)pyridin-3-yl)-6-oxopyridazin-1(6H)-yl)-N-ethylacetamide], the IC50 in assay [1] (Table 4A) is 10 to 100 µM; in assay [2] (Table 5A), over 100 µM.
As for `COc1ccc(-c2ccc(=O)n(CC(=O)Nc3cc(Cl)ccc3Cl)n2)c(F)c1` [IIIb-13, N-(2,5-dichlorophenyl)-2-(3-(2-fluoro-4-methoxyphenyl)-6-oxopyridazin-1(6H)-yl)acetamide], the IC50 in assay [1] (Table 4C) was under 10 µM; in assay [2] (Table 5C), over 100 µM.
The matching figures for `COc1ccc(-c2ccc(=O)n(CC(=O)NCCC(C)C)n2)c(F)c1` [IIIb-57, 2-(3-(2-fluoro-4-methoxyphenyl)-6-oxopyridazin-1(6H)-yl)-N-isopentylacetamide]: over 100 µM and over 100 µM.
As for `CCOc1ccc(-c2ccc(=O)n(CCNC(=O)CC3CCCC3)n2)cc1` [IIIb-43, 2-cyclopentyl-N-(2-(3-(4-ethoxyphenyl)-6-oxopyridazin-1(6H)-yl)ethyl)acetamide], the IC50 in assay [1] (Table 4C) and in assay [2] (Table 5C) was over 100 µM each time.
For the molecule `CCNC(=O)Cn1nc(-c2ccc(OC(F)F)cc2)c(C)cc1=O` [II-19, 2-(3-(4-(difluoromethoxy)phenyl)-4-methyl-6-oxopyridazin-1(6H)-yl)-N-ethylacetamide], the IC50 in assay [1] (Table 4B) is 10 to 100 µM; in assay [2] (Table 5B) it was over 100 µM.
The matching figures for `O=C(Cn1nc(-c2ccc(OCC(F)(F)F)cc2)ccc1=O)NCc1ccc(CO)cc1` [II-24, N-(4-(hydroxymethyl)benzyl)-2-(6-oxo-3-(4-(2,2,2-trifluoroethoxy)phenyl)pyridazin-1(6H)-yl)acetamide]: over 100 µM and over 100 µM.
For the molecule `O=C(Cn1nc(-c2ccc(OC(F)F)cc2)ccc1=O)NCC(F)(F)F` [II-11, 2-(3-(4-(difluoromethoxy)phenyl)-6-oxopyridazin-1(6H)-yl)-N-(2,2,2-trifluoroethyl) acetamide], the results for the IC50 in assay [1] (Table 4B) and in assay [2] (Table 5B) were 10 to 100 µM and over 100 µM, respectively.
For the molecule `COc1ccc(-c2ccc(=O)n(CC(=O)NCc3ccc(F)cc3)n2)c(F)c1` [IIIb-46, 2-(3-(2-fluoro-4-methoxyphenyl)-6-oxopyridazin-1(6H)-yl)-N-(4-fluorobenzyl)acetamide], the IC50 in assay [1] (Table 4C) and in assay [2] (Table 5C) was over 100 µM each time.
Consider `CC1(NC(=O)Cn2nc(-c3ccc(OC(F)F)nc3)ccc2=O)CCC1` [Compound I-15, 2-(3-(6-(difluoromethoxy)pyridin-3-yl)-6-oxopyridazin-1(6H)-yl)-N-(1-methylcyclobutyl)acetamide], for which the IC50 is 10 to 100 µM in assay [1] (Table 4A) and over 100 µM in assay [2] (Table 5A).
Turning to `CC(C)Oc1ccc(-c2ccc(=O)n(CC(=O)NCc3ccccc3Cl)n2)cc1` [IIIa-2, N-(2-chlorobenzyl)-2-(3-(4-isopropoxyphenyl)-6-oxopyridazin-1(6H)-yl)acetamide], the figures for the IC50 in assay [1] (Table 4C) and in assay [2] (Table 5C) were under 10 µM and over 100 µM, respectively.
For `CCNC(=O)Cn1nc(-c2cnc(OCC(F)(F)F)nc2)ccc1=O` [Compound I-8, N-ethyl-2-(6-oxo-3-(2-(2,2,2-trifluoroethoxy)pyrimidin-5-yl)pyridazin-1(6H)-yl)acetamide], the values for the IC50 in assay [1] (Table 4A) and in assay [2] (Table 5A) were under 10 µM and over 100 µM, respectively.
As to `Cn1ccc2c(NC(=O)Cn3nc(-c4ccc(F)cc4)ccc3=O)cccc21` [IIIc-16, 2-(3-(4-fluorophenyl)-6-oxopyridazin-1(6H)-yl)-N-(1-methyl-1H-indol-4-yl)acetamide], the IC50 was under 10 µM in assay [1] (Table 4C) and over 100 µM in assay [2] (Table 5C).
On to `O=C(Cn1nc(-c2ccc(OCC(F)(F)F)nc2)ccc1=O)NC1CCC1` [Compound I-56, N-cyclobutyl-2-(6-oxo-3-(6-(2,2,2-trifluoroethoxy)pyridin-3-yl)pyridazin-1(6H)-yl)acetamide], for which the results for the IC50 in assay [1] (Table 4A) and in assay [2] (Table 5A) were under 10 µM and 10 to 100 µM, respectively.
Consider `O=C(Cn1nc(-c2ccc(OC(F)F)cc2)ccc1=O)NCC1CCC1` [II-18, N-(cyclobutylmethyl)-2-(3-(4-(difluoromethoxy)phenyl)-6-oxopyridazin-1(6H)-yl)acetamide], for which the IC50 in assay [1] (Table 4B) is 10 to 100 µM; in assay [2] (Table 5B) it was over 100 µM.
On to `CCNC(=O)Cn1nc(-c2ccc(NC34CC(CO)(C3)C4)nc2)ccc1=O` [Compound I-58, N-ethyl-2-(3-(6-((3-(hydroxymethyl)bicyclo[1.1.1]pentan-1-yl)amino)pyridin-3-yl)-6-oxopyridazin-1(6H)-yl)acetamide], for which the results for the IC50 in assay [1] (Table 4A) and in assay [2] (Table 5A) were 10 to 100 µM and over 100 µM, respectively.
With `COc1ccc(-c2ccc(=O)n(CC(=O)NCCc3ccccc3)n2)cc1` [IIIa-5, 2-(3-(4-methoxyphenyl)-6-oxopyridazin-1(6H)-yl)-N-phenethylacetamide], the IC50 is under 10 µM in assay [1] (Table 4C) and over 100 µM in assay [2] (Table 5C).
On the same counts, the results for `COc1ccc(-c2ccc(=O)n(CC(=O)NCc3cc(Cl)ccc3Cl)n2)cc1` are under 10 µM and over 100 µM.
On the same counts, the results for `COc1ccc(-c2ccc(=O)n(CC(=O)NCC(C)C)n2)cc1` [IIIb-29, N-isobutyl-2-(3-(4-methoxyphenyl)-6-oxopyridazin-1(6H)-yl)acetamide] are 10 to 100 µM and over 100 µM.
On the same counts, the results for `COc1ccc(-c2ccc(=O)n(CC(=O)NCc3ccc(C)cc3)n2)cc1` [IIIa-15, 2-(3-(4-methoxyphenyl)-6-oxopyridazin-1(6H)-yl)-N-(4-methylbenzyl) acetamide] are under 10 µM and over 100 µM.
